# Measured values reported in publication PMC8433531 (Proceedings of the National Academy of Sciences of the …, 2021).
# Assays:
# SARS-CoV-2 [1] = type: cell-based
# SARS-CoV-2 [2] = assay: SARS-CoV-2 infection of Caco-2 cells with MEK inhibitors; type: cell-based; settings: Caco-2, 10 µM
# SARS-CoV-2 [3] = type: cell-based; settings: for antiviral activity against SARS-CoV-2 in iAECs: iAEC2
# SARS-CoV-2 [4] = settings: cited from earlier work
# SARS-CoV-2 [5] = assay: Hit validation across cell systems; type: cell-based; settings: Huh7, LNCaP, Caco-2, Vero E6, iAEC2
# SARS-CoV-2 [6] = assay: microbe, parasite or virus in culture; type: cell-based; settings: Severe acute respiratory syndrome coronavirus 2, Huh-7, 48 h
# SARS-CoV-2 [7] = type: cell-based; settings: Huh7, MOI of 1, 1,000 nM, 24 and 48 h p.i., versus untreated
# SARS-CoV-2 [8] = assay: Viral binding assay on Huh7 cells; type: cell-based; settings: lactoferrin 1,250 and 6,250 nM, remdesivir 10 nM, NaClO3 7 d
molecule,measurement,setting,value
Cn1cnc2c(F)c(Nc3ccc(Br)cc3F)c(C(=O)NOCCO)cc21 [binimetinib],increase of viral infection,SARS-CoV-2 [1],greater than twofold increase
same,exacerbation of infection,SARS-CoV-2 [2],exacerbation effect was observed
CC(C)/N=c1\cc2n(-c3ccc(Cl)cc3)c3ccccc3nc-2cc1Nc1ccc(Cl)cc1 [CLOFAZIMINE],antiviral activity against SARS-CoV-2 in iAECs,SARS-CoV-2 [3],dose-responsive antiviral activity
same,viral infection in a hamster model of disease,SARS-CoV-2 [4],block viral infection
CC(C)[N+]1(C)[C@@H]2CC[C@H]1C[C@@H](OC(=O)C(CO)c1ccccc1)C2 (some centres unmarked) [Ipratropium Bromide],antiviral activity against SARS-CoV-2 in iAECs,SARS-CoV-2 [3],dose-responsive antiviral activity
same,efficacy across all tested cell systems,SARS-CoV-2 [5],maintained efficacy across all tested cell systems
"transferrin: transferrin (Sigma-Aldrich; T2036), control to rule out iron chelation",antiviral activity (iron chelation control),"SARS-CoV-2 [1]; Huh7, 6,250 nM",inactive
CCN(CC)CCCC(C)Nc1ccnc2cc(Cl)ccc12 (centres unmarked) [chloroquine],concentrations at which efficacious,"SARS-CoV-2 [1]; Huh7, dose-response confirmation",above 1 µM
CCc1nc(C(N)=O)c(Nc2ccc(N3CCC(N4CCN(C)CC4)CC3)c(OC)c2)nc1NC1CCOCC1 [Gilteritinib],antiviral activity against SARS-CoV-2 in iAECs,SARS-CoV-2 [3],dose-responsive antiviral activity
CCC(CC)COC(=O)[C@H](C)N[P@](=O)(OC[C@H]1O[C@@](C#N)(c2ccc3c(N)ncnn23)[C@H](O)[C@@H]1O)Oc1ccccc1 [Remdesivir],antiviral activity at high MOI,SARS-CoV-2 [3],retained antiviral activity
same,antiviral activity against SARS-CoV-2 in iAECs,SARS-CoV-2 [3],dose-responsive antiviral activity
same,efficacy across all tested cell systems,SARS-CoV-2 [5],maintained efficacy across all tested cell systems
same,IC50,SARS-CoV-2 [6],6.7 nM
CC(NC(=O)[C@H](Cc1ccccc1)NC(=O)OCc1ccccc1)C(=O)CF (some centres unmarked) [Z-FA-FMK],efficacy across all tested cell systems,SARS-CoV-2 [5],maintained efficacy across all tested cell systems
O=C(NC1CCN(CCCCC2(C(=O)NCC(F)(F)F)c3ccccc3-c3ccccc32)CC1)c1ccccc1-c1ccc(C(F)(F)F)cc1 [Lomitapide],antiviral activity against SARS-CoV-2 in iAECs,SARS-CoV-2 [3],dose-responsive antiviral activity
same,efficacy across all tested cell systems,SARS-CoV-2 [5],maintained efficacy across all tested cell systems
CC(=O)Nc1cccc(-n2c(=O)n(C3CC3)c(=O)c3c(Nc4ccc(I)cc4F)n(C)c(=O)c(C)c32)c1 [trametinib],increase of viral infection,SARS-CoV-2 [1],greater than twofold increase
same,exacerbation of infection,SARS-CoV-2 [2],exacerbation effect was observed
O=C(c1ccc(F)c(F)c1Nc1ccc(I)cc1F)N1CC(O)([C@@H]2CCCCN2)C1 [cobimetinib],increase of viral infection,SARS-CoV-2 [1],greater than twofold increase
same,percentage of viral RNA-positive cells,SARS-CoV-2 [7],"increased at 48 h p.i., but not at 24 h p.i."
[Na+].[O-][Cl+2]([O-])[O-] [NaClO3],SARS-CoV-2 attachment to Huh7 cells,SARS-CoV-2 [8],reduced
Cc1cc(OCCN2CCOCC2)nn1-c1ccc2ccccc2c1 [S1RA],antiviral activity at high MOI,SARS-CoV-2 [3],retained antiviral activity
same,antiviral activity against SARS-CoV-2 in iAECs,SARS-CoV-2 [3],dose-responsive antiviral activity
